Measured values published in ChEMBL document CHEMBL1201862, “PubChem BioAssay data set” (2004).
Calls of active or inactive are those of the source.

Key:
HEK293 [1] = experiment: cells; settings: Homo sapiens
HEK293 [2] = experiment: cells; settings: Homo sapiens; remark: listed apart in the source
HEK293 [3] = experiment: cytotoxicity in HEK293T NF-kB-Luc cells, SAR follow-up, cytotoxicity control for NF-kB activator project, cell-based, resazurin fluorescence (AID 493251); assay type: functional; settings: Homo sapiens
HEK293 [4] = experiment: SAR Analysis of small molecule inhibitors of T-cell specific antigen receptor-induced NF-kB activation in a HEK-293T cell line using a luminescence assay - Set 2. [Related pubchem assays (depositor defined):AID435003, AID435012, AID489026]; assay type: functional, cell-based; settings: Homo sapiens
Jurkat [5] = experiment: SAR Analysis of small molecule inhibitors of T-cell specific antigen receptor-induced NF-kB activation in a Jurkat cell line using a luminescence assay - Set 2. [Related pubchem assays (depositor defined):AID435003, AID435012, AID465]; assay type: functional, cell-based; settings: Homo sapiens
Escherichia coli [6] = experiment: microbe, parasite or virus in culture
[7] = Luminescence Cell-Based Dose Response HTS to Identify Inhibitors of 5'UTR Stem-Loop Driven Prion Protein mRNA Translation in H4 Neuroglioblastoma Cells. [Related pubchem assays: 1827 (Project Summary), 1813 (Primary HTS)]; assay type: functional
[8] = biological target: T1, Heat shock factor protein 1 (Mus musculus, UniProt P38532); experiment: inhibition of MG132-induced HSE-luciferase signal, confirmation, cell-based, NIH3T3, luminescence, dose retest (AID 2382); assay type: functional;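 note: NIH3T3 fibroblasts with HSF1-driven luciferase reporter stressed by proteasome inhibitor MG132; luminescence from HSF1-driven luciferase expression after 8 hours of MG132 stress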
T1 sequence (P38532 whole entry): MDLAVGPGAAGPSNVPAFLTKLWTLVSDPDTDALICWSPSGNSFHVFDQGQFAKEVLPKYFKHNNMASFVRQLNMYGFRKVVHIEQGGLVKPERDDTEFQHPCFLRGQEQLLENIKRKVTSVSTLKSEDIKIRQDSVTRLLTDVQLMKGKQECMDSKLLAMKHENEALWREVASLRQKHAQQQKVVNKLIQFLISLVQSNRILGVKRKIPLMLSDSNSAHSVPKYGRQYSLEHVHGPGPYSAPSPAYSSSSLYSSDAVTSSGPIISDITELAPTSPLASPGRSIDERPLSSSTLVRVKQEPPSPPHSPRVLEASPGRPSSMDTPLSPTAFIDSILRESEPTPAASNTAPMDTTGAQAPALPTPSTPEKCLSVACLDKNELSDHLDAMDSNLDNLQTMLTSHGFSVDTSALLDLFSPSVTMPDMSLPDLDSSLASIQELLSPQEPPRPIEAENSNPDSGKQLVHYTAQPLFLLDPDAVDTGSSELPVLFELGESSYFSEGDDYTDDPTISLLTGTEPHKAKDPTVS

[9] = inhibitors of SNCA 5'UTR-driven reporter translation, confirmation, H4 neuroglioma cells, luminescence (AID 1988); assay type: functional, cell-based
INS1 = experiment: beta cell apoptosis inhibitors, cytokine rescue, dose response, luminescence, retest (AID 449756); assay type: functional, cell-based; settings: Rattus norvegicus;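 note: cell death triggered by IL-1 beta plus TNF-alpha plus IFN-gamma mixture; protective hits raise ATP signal compared with cytokine alone wells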
[10] = cytotoxicity toward DRD oncogenic fibroblasts, dose response, cell-based, non-viral oncogenic, luminescence (AID 1934); assay type: functional; settings: Homo sapiens
[11] = inhibitors of clade B AD8 Env fusion, dose response, cell-based, cherry-pick (AID 652062); assay type: functional;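 note: luciferase signal from cell-cell fusion driven by HIV-1 clade B AD8 Env; potency is for inhibitors of fusion seen as a drop in luminescence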
[12] = cytotoxicity in HEK-293T NF-kB-Luc cells, dose response, cytotoxicity control for B/T-cell NF-kB inhibitor project, cell-based, uHTS hits (AID 489019); assay type: functional;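 note: IC50 reflects cytotoxicity as loss of cell viability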
[13] = inhibitors of HIV Env-driven cell fusion, dose response, cherry-pick (AID 652057); assay type: functional, cell-based
BJ [14] = experiment: cytotoxicity toward Ras-transformed BJeLR fibroblasts, dose response, cell-based, alamar blue fluorescence, cherrypicked samples (AID 2631); assay type: functional; settings: Homo sapiens;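 note: confirmatory dose-response assay in RAS-dependent BJ fibroblasts engineered with TERT, LT and ST, with cytotoxicity read by fluorescence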
BJ [15] = experiment: cytotoxicity toward BJ-TERT-LT-ST fibroblasts, dose response, cell-based, RAS-independent, luminescence (AID 1935); assay type: functional; settings: Homo sapiens;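 note: BJ fibroblasts immortalized with TERT plus LT and ST oncogenes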
[16] = inhibitors of SNCA 5'UTR-driven translation, confirmation, luminescence, H4 neuroglioblastoma cells, dose confirmation (AID 2454); assay type: functional, cell-based;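 note: H4 neuroglioblastoma cells carrying an alpha-synuclein 5'UTR luciferase reporter; potency for inhibition of the luciferase signal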
[17] = ZM109 Env clade C HIV-1 fusion inhibitors, dose response, HeLa effector, CEM target cells, luciferase, cherry-pick (AID 652058); assay type: functional, cell-based
Jurkat [18] = experiment: antigen receptor-induced NF-kB inhibitors, dose response, Jurkat, luciferase reporter, luminescence, B- and T-cell (AID 489004); assay type: functional, cell-based; settings: Homo sapiens;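 note: NF-kB luciferase reporter Jurkat cells stimulated with PMA plus ionomycin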
[19] = CEM21 lymphoblast cell cytotoxicity, dose response, cytotoxicity control for viral fusion inhibitor project, CellTiter-Glo luminescence, cherry-picked (AID 652042); assay type: functional, cell-based;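 note: potency for signal decrease meaning cytotoxicity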
[20] = biological target: Luciferin 4-monooxygenase (Photinus pyralis, UniProt P08659); experiment: firefly luciferase enzyme inhibitors, dose response, biochemical, luminescence (AID 1891)
cells = assay type: functional, cell-based
[21] = luciferase reporter signal reduction – luminescence, H4-C neuroglioblastoma cells, dose response (AID 2458); assay type: functional, cell-based;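 note: H4 neuroglioblastoma cells stably carrying a luciferase reporter gene fusion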
[22] = Luminescence Cell-Based Dose Confirmation HTS to Identify Inhibitors of Platelet Dense Granule Release. [Related pubchem assays: 1663 (Primary HTS), 1678 (Summary of Project)]; assay type: functional
BJ [23] = experiment: cells; assay type: functional, cell-based; settings: Homo sapiens
BJ [24] = experiment: cytotoxicity toward BJ-TERT fibroblasts, dose response, cell-based, RAS-independent, luminescence (AID 1933); assay type: functional; settings: Homo sapiens
[25] = inhibitors of firefly luciferase expression or activity, dose response, H4 neuroglioma cells, luminescence (AID 1990); assay type: functional, cell-based
[26] = off-target signal loss in HeLa-CEM21 co-culture – HeLa F-luc CTL cells, cherry-picked, counter-screen for HIV-1 Env fusion inhibitor project, dose response (AID 652040); assay type: functional, cell-based;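 note: potency for signal decrease marking cytotoxic or nonspecific inhibition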
Escherichia coli [27] = experiment: microbe, parasite or virus in culture; remark: listed apart in the source

Luciferin 4-monooxygenase, sequence (P08659 whole entry): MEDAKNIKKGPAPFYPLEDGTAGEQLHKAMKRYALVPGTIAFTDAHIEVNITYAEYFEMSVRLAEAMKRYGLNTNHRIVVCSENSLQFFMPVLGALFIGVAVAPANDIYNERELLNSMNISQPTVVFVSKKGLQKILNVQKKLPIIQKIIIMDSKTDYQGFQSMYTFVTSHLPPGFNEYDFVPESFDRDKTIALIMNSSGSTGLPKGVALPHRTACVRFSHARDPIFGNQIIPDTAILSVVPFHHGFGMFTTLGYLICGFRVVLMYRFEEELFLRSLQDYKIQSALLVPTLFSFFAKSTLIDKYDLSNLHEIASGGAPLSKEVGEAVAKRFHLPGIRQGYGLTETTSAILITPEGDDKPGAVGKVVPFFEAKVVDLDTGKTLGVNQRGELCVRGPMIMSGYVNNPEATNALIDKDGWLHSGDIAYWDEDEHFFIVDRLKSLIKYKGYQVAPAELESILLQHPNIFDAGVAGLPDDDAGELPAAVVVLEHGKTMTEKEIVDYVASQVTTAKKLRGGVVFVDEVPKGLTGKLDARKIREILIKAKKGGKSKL

With `COc1ccc(CNCCc2c[nH]c3ccccc23)c(OC)c1OC` the EC50 (HEK293 [1]) was > 59.6 µM (inactive) and the EC50 (HEK293 [2]) was > 59.6 µM (inactive).
For `COc1ccc(C)cc1NC(=O)c1ccc([N+](=O)[O-])o1`, the IC50 (HEK293 [3]) was > 80 µM (inactive), the IC50 (HEK293 [4]) was 75.6 µM (inactive) and the IC50 (Jurkat [5]) was 6.03 µM (active).
For `O=C(CCc1ccccc1)N1CCN(Cc2ccc(F)cc2Cl)CC1`, the AC50 (Escherichia coli [6]) was 66.5 µM (active).
For `Nc1nc(F)nc2c1ncn2[C@@H]1O[C@H](CO)[C@@H](O)[C@H]1O`, the EC50 [7] was < 0.1 µM (active), the EC50 [8] was 5.46 µM (active) and the EC50 [9] was < 0.1 µM (active). For the same compound, the AC50 (INS1) was 1.35 µM (active), the EC50 [10] was 0.674 µM (active) and the AC50 [11] was 1.92 µM (active). For the same compound, the IC50 [12] was > 80 µM (inactive), the AC50 [13] was 0.341 µM (active) and the EC50 (BJ [14]) was 0.348 µM (active). For the same compound, the EC50 (BJ [15]) was 0.46 µM (active), the EC50 [16] was 0.07 µM (active) and the AC50 [17] was < 0.26 µM (active). For the same compound, the IC50 (Jurkat [18]) was 2.35 µM (active), the AC50 [19] was 0.271 µM (active) and the EC50 [20] was > 112 µM (not active). The EC50 (cells) was 0.084 µM (active), the EC50 [21] was 0.199 µM (active) and the EC50 [22] was < 0.088 µM (active). The EC50 (BJ [23]) was 1.35 µM (active), the EC50 (BJ [24]) was 0.124 µM (active) and the EC50 [25] was 0.242 µM (active). For the same compound, the AC50 [26] was 1.4 µM (active).
In the case of `Cc1cc(Cl)ccc1NC(=O)CN1CCCC1`, the AC50 (Escherichia coli [27]) is reported as 40 µM (active).
